Several values for one entry are separate records, joined by “and”; a condition that tells them apart may be missing. Equal entries are not always repeated. Where two headings read alike, the source gives them in different places.
Assays:
human neutrophils [1] = assay: Elastase exocytosis from neutrophils (fMLP-induced); type: cell-based; details: neutrophil (PMN) elastase release
Outline: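 Human blood neutrophils (Ficoll-Hypaque) treated with compound or DMSO, then stimulated 90 min at 37 °C with 1 μM fMLP plus 0.01 mg/mL cytochalasin B, 1.0 μM NaN3 and 5 μg/mL L-methionine. Supernatant elastase read at 410 nm over 2 h on MeO-suc-AAPV-pNA, normalized to uninhibited; EC50 in μM.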

PI3Kα [2] = biological target: T1, PI3Kα (Homo sapiens, UniProt P42336); assay: Biochemical assay using 200 μM ATP, Alpha
T1 construct: His tag (pFastbac HTb vector) (N); FLAG; made in house; host or cells: Sf21 insect cells (baculovirus)
T1 sequence (P42336 whole entry): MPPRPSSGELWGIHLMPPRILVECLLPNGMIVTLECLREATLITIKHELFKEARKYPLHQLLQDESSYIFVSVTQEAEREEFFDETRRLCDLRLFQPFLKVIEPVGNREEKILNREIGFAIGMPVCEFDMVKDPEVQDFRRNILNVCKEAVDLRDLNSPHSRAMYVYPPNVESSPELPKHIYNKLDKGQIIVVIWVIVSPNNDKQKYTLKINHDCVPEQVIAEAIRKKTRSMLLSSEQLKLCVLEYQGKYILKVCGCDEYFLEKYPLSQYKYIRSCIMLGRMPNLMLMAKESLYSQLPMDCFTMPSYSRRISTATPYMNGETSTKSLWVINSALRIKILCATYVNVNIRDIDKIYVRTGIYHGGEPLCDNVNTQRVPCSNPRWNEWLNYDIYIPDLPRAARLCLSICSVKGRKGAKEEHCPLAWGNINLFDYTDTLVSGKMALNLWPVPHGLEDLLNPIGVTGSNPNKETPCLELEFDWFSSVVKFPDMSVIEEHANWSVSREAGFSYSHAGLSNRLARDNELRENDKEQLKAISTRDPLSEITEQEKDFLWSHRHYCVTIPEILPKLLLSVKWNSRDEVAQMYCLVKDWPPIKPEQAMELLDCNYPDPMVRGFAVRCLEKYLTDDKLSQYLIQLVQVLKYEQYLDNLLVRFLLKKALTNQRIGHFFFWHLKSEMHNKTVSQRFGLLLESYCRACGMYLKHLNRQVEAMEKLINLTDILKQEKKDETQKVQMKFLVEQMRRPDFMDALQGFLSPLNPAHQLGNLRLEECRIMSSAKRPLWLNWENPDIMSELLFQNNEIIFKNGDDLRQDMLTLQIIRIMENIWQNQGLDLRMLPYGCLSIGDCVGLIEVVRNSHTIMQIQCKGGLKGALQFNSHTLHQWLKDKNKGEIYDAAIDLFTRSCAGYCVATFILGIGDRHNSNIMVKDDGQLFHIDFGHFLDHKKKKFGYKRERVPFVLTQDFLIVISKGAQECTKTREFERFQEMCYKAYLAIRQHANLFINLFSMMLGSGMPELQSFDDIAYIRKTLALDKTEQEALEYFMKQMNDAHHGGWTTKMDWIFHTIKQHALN
T1 sequence (P27986 whole entry partner): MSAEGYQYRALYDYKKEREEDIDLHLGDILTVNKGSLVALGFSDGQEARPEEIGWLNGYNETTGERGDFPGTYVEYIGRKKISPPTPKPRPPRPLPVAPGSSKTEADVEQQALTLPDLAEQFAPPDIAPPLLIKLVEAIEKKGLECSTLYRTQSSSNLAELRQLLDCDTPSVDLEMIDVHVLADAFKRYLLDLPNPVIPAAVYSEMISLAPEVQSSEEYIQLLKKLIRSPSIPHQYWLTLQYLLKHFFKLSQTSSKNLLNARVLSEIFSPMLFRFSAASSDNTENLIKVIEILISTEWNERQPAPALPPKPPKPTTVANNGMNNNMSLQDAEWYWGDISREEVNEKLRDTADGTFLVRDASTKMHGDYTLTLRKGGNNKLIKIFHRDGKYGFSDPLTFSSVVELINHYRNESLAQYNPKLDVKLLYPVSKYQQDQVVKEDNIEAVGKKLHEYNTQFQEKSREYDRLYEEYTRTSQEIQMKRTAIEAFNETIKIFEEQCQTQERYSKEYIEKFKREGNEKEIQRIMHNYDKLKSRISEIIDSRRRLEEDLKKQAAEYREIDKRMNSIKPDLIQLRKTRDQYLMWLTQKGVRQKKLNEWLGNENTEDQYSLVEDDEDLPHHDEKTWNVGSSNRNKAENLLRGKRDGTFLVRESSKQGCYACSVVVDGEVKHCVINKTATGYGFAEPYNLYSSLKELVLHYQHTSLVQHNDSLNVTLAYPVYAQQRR
Method: (§3) PI3Kδ catalyzes a phosphotransfer from γ-[^32P]ATP to PIP2/PS liposomes at the D3′ position of the PIP2 lipid inositol ring. This reaction is MgCl2 dependent and is quenched in high molarity potassium phosphate buffer pH 8.0 containing 30 mM EDTA. […] The reaction products (and all unlabelled products) are transferred to a 96-well, prewetted PVDF filter plate, filtered, and washed in high molarity potassium phosphate. Scintillant is added to the dried wells and the incorporated radioactivity is quantitated.
(§4) This dilution established a final concentration of 200 μM ATP in the reaction volume. The reaction was stopped with 150 μL quench buffer (1.0 M potassium phosphate pH 8.0, 30 mM EDTA). A portion of the quenched solution (180 μL) was then transferred to a PVDF filter plate (Millipore # MAIP NOB prewetted with sequential 200 μL washes of 100% methanol, water, and finally 1.0 M potassium phosphate pH 8.0 wash buffer).
(§5) The PVDF filter plate was aspirated under moderate vacuum (2-5 mm Hg), washed with 5×200 μL of wash buffer, and then dried by aspiration. The filter was subsequently blotted, allowed to air dry completely, and inserted into a Wallac counting cassette with 50 μL of Ecoscint scintillation cocktail added per well.
(§6) Subsequent selectivity assays were done similarly using the same 3× substrate stocks except they contained 0.05 mCi/mL γ[^32P]ATP and 3 mM PIP2. Subsequent selectivity assays also used the same 3× enzyme stocks, except they now contained 3 nM of any given PI3K isoform.
(§7) For all selectivity assays, the test compounds were weighed out and dissolved into 10-50 mM stocks in 100% DMSO (depending on their respective solubilities) and stored at −20° C. […] From these dilutions, 20 μL was added into the assay wells alongside water blanks used for the enzyme (positive) control and the no enzyme (background) control.
(§8) This selectivity protocol is identical to that described above, except the 3× stock ATP concentration was 600 μM.

PI3Kα [3] = biological target: T1, PI3Kα; assay: Biochemical assay of PI3K potency and selectivity using 20 μM ATP, Alpha; details: for Alpha/Delta Ratio: ratio of IC50 values, > = hypothetical ratio with 100 μM substituted for the missing IC50; for remaining activity at 100 µM: read-out: percent activity remaining at 100 μM, 20 μM ATP, 100 μM compound did not inhibit by at least 50%
Outline: (§1)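 Radioactive phosphate transfer from γ-[32P]ATP onto PIP2/PS liposomes was measured in 20 mM HEPES, pH 7.4, at 20 μM ATP. The 3× substrate stock contained […] and 6 μM PIP2/PS.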

T cell proliferation = assay: Stimulated T cell proliferation (Mouse TCE Stim, Table 4); type: cell-based; details: read-out: Mouse TCE Stim (EC50)
human neutrophils [4] = assay: fMLP-induced human neutrophil migration; type: cell-based; details: neutrophil (PMN) migration, read-out: Human PMN Migration (EC50)
Method: Neutrophils have the intrinsic capacity to migrate through tissues, and are one of the first cell types to arrive at the sites of inflammation or tissue injury. The effect of D-000 on neutrophil migration towards a concentration gradient of fMLP was measured. The day before the migration assays were performed, 6-well plates were coated with recombinant ICAM-1/Fc fusion protein (Van der Vieren et al., Immunity, 3:683-690 (1995)) (25 μg/mL in bicarbonate buffer, pH 9.3) and left overnight at 4° C. After washing, 1% agarose solution, in RPMI-1640 with 0.5% bovine serum albumin (BSA), was added to wells with or without an inhibitor, and plates were placed into a refrigerator before punching holes in the gelled agarose to create plaques (1 central hole surrounded by 6 peripheral ones per well).
Human neutrophils were obtained as described above, and resuspended in RPMI medium supplemented with 0.5% BSA at 5×10^6 cells/mL. After combining equal volumes of neutrophil suspension and medium (either with DMSO or a serial dilution of the test compound in DMSO), neutrophils were aliquoted into the peripheral holes, while the central hole received fMLP (5 μM). Plates were incubated at 37° C. in the presence of 5% CO2 for 4 hr, followed by termination of migration by the addition of 1% glutaraldehyde solution in D-PBS. After removing the agarose layer, wells were washed with distilled water and dried.
Analysis of neutrophil migration was conducted on a Nikon DIAPHOT® inverted microscope (1× objective) video workstation using the NIH 1.61 program. Using Microsoft Excel and Table Curve 4 (SSPS Inc., Chicago Ill.) programs, a migration index was obtained for each of the studied conditions. Migration index was defined as the area under a curve representing number of migrated neutrophils versus the net distance of migration per cell.
Using the methods described in Examples 3-5, above, compounds of the invention were tested for inhibitory activity and potency in assays of stimulated B and T cell proliferation, neutrophil (PMN) migration, and neutrophil (PMN) elastase release. In Table 4, the values shown are effective concentrations of the compound (EC50; μM). Where no value is given, no assay was performed.

PI3Kγ [5] = biological target: T2, PI3Kγ (Homo sapiens, UniProt P48736); assay: Biochemical assay using 200 μM ATP, Gamma
T2 construct: His tag (pFastbac HTb vector) (N); FLAG (N); made in house; host or cells: Sf21 insect cells (baculovirus)
T2 sequence (P48736 whole entry): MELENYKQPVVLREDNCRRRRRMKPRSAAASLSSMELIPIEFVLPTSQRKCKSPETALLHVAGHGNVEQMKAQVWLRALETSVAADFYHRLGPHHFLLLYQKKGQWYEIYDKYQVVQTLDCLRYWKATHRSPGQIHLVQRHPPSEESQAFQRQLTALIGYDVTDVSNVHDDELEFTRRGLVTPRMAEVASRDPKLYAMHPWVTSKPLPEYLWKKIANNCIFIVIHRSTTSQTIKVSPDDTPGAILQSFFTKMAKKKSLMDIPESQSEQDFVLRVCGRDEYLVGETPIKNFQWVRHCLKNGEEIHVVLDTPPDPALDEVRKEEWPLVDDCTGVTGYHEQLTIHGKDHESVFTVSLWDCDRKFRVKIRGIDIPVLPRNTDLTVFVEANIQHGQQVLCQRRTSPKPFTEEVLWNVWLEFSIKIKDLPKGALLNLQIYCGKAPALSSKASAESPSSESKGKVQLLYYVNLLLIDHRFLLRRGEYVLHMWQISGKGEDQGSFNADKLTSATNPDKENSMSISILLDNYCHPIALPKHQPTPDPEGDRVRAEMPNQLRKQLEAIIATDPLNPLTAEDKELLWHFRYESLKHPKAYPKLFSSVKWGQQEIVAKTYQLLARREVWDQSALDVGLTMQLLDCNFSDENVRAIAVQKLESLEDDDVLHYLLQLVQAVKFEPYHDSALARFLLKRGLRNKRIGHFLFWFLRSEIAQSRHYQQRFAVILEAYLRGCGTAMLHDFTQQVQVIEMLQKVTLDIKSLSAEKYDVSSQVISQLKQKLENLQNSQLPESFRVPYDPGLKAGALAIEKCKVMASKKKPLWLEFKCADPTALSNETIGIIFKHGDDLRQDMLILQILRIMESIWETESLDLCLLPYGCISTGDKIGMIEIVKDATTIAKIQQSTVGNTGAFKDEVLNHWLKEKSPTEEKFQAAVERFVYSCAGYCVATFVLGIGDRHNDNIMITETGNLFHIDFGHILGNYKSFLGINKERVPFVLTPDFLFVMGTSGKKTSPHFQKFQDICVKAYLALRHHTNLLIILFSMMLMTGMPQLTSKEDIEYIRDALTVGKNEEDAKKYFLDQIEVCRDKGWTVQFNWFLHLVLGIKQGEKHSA

PI3Kβ [6] = biological target: T3, PI3Kβ (Homo sapiens, UniProt P42338); assay: Biochemical assay of PI3K potency and selectivity using 20 μM ATP, Beta; details: 20 μM ATP; for Beta/Delta Ratio: ratio of IC50 values, > = hypothetical ratio with 100 μM substituted for the missing IC50; for IC50: read-out: Beta IC50
T3 construct: His tag (pFastbac HTa vector) (N); FLAG (N); made in house; host or cells: Sf21 insect cells (baculovirus)
T3 sequence (P42338 whole entry): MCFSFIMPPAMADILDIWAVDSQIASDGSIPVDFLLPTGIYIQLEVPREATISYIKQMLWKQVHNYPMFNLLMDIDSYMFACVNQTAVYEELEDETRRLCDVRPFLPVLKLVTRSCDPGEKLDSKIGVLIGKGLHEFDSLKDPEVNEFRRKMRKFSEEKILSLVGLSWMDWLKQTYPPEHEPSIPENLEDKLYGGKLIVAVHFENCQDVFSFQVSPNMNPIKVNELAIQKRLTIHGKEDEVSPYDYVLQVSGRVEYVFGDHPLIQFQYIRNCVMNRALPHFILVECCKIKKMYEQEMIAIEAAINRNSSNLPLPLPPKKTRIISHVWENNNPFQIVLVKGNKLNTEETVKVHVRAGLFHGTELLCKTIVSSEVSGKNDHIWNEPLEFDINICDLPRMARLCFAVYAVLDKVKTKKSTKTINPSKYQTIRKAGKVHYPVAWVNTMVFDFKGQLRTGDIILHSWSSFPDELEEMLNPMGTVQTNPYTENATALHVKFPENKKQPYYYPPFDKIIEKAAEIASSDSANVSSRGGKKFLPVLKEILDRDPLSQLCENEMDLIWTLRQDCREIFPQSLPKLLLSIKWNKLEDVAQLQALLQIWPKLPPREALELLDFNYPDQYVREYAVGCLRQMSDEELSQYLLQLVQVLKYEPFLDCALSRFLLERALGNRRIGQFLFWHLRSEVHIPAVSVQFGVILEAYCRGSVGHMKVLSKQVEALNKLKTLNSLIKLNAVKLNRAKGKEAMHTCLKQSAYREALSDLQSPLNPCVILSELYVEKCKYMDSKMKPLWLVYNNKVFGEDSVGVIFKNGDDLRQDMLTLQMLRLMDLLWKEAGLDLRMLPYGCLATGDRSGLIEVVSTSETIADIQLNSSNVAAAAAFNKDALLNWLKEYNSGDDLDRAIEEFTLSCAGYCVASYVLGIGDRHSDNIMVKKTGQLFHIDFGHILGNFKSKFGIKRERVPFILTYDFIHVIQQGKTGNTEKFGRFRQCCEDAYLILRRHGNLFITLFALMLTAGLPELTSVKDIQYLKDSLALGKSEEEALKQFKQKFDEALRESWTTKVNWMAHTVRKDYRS
T3 sequence (P27986 whole entry partner): as the sequence (P27986 whole entry partner) above
Outline: as §1

[7] = tested on: Murine splenocytes (Balb/c); assay: B cell proliferation in response to cell surface IgM stimulation; type: cell-based; details: Mus musculus, Splenocyte; stimulated B cell proliferation; read-out: Mouse BCR Stim (EC50)
Outline: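 Balb/c splenocytes (2×10^5/well, 10% FBS/RPMI) preincubated 30-60 min with inhibitor, then stimulated with goat F(ab′)2 anti-mouse IgM μ-chain at 25 μg/mL final. Cultured 3 days at 37° C., [^3H]-thymidine pulsed for final 4 h; incorporation counted as CPM. Values are EC50 (μM).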

PI3Kδ [8] = biological target: T4, PI3Kδ (Homo sapiens, UniProt O00329, S253N); assay: Biochemical assay using 200 μM ATP, Delta;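 further: radiometric filter-binding assay: PI3Kδ transfers ³²P from γ-[³²P]ATP onto PIP2/PS liposomes, counted by scintillation, enzyme-only wells as positive control, no-enzyme wells as background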
T4 sequence (O00329 whole entry S253N): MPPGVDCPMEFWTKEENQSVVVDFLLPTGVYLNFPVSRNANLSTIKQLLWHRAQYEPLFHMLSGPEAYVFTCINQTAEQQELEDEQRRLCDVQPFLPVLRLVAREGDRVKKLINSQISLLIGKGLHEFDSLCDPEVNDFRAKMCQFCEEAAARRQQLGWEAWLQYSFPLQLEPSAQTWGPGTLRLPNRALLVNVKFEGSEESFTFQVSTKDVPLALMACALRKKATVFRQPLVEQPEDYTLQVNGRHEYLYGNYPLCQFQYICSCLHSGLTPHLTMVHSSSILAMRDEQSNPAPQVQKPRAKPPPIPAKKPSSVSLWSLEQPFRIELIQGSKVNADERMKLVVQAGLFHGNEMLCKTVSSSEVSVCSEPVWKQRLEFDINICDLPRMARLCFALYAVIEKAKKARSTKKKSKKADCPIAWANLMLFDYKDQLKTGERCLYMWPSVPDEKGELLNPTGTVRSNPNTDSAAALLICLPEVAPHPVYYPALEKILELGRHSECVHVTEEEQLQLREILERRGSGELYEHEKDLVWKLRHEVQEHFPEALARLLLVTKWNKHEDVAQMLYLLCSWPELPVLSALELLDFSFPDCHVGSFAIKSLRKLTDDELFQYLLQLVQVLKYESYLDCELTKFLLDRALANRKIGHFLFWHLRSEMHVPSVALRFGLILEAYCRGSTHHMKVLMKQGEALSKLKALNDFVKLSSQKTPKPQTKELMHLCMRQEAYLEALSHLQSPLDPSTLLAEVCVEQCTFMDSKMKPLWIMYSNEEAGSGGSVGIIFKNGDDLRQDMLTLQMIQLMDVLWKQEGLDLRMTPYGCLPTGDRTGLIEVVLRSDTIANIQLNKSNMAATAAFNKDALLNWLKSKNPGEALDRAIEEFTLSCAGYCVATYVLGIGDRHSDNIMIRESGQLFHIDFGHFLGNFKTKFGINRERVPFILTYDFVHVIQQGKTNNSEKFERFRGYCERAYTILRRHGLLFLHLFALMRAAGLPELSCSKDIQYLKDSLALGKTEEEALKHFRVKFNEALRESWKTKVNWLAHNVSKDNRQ
T4 sequence (P27986 whole entry partner): as the sequence (P27986 whole entry partner) above
Method: as §3, §4, §5, §6, §7, §8

PI3Kβ [9] = biological target: T3, PI3Kβ; assay: Biochemical assay using 200 μM ATP, Beta
osteoclasts = assay: Osteoclast function, pit depths on dentine slices; type: cell-based, mouse; details: inhibitor 100 nM + osteopontin (OPN) 25 μg/mL, 72 hr; two experiments; OPN alone 10 ± 0.5 and 9 ± 0.4
Method: To analyze the effect of the PI3Kδ inhibitor D-000 on osteoclasts, mouse bone marrow cells were isolated and differentiated them to osteoclasts by treating the cells with Macrophage Colony Stimulating Factor^−1 (mCSF^−1) and Osteoprotegerin Ligand (OPGL) in serum-containing medium (αMEM with 10% heat-inactivated FBS; Sigma) for 3 days. On day four, when the osteoclasts had developed, the medium was removed and cells were harvested. The osteoclasts were plated on dentine slices at 10^5 cells/well in growth medium, i.e., αMEM containing 1% serum and 2% BSA with […] and 10 ng/mL mCSF-1. After 3 hr, the medium was changed to 1% serum and 1% BSA, with or without osteopontin (25 μg/mL) and the PI3K inhibitors (100 nM). The medium was changed every 24 hours with fresh osteopontin and the inhibitors. At 72 hr, the medium was removed, and the dentine surfaces were washed with water to remove cell debris and stained with acid hematoxylin. Excess stain was washed and the pit depths were quantitated using confocal microscopy.

basophils = assay: Basophil histamine release assay; type: cell-based, human
Method: Assessment of the effect of a compound of the invention on basophil function was tested using a conventional histamine release assay, generally in accordance with the method described in Miura et al., J Immunol, 162:4198-206 (1999). Briefly, enriched basophils were preincubated with test compounds at several concentrations from 0.1 nM to 1,000 nM, for 10 min at 37° C. Then, polyclonal goat antihuman IgE (0.1 μg/mL) or fMLP was added, and allowed to incubate for an additional 30 min. Histamine released into the supernatant was measured using an automated fluorometric technique. Two compounds were tested, shown below.

PI3Kδ [10] = biological target: T4, PI3Kδ; assay: Biochemical assay of PI3K potency and selectivity using 20 μM ATP, Delta; design: His tag (pFastbac HTb vector) (N); FLAG; made in house; host or cells: Sf21 insect cells (baculovirus)
Outline: as §1

rats = assay: Six-day air pouch model, TNF challenge, leukocyte counts and neutrophil elastase in lavage fluid; type: in vivo, rat; details: 100 mg/kg orally, TNF 2.5 ng
Method: The six-day air pouch model is an in vivo inflammation model that histologically resembles a joint synovium. A lining of organized mononuclear cells and fibroblasts develops that closely resembles a synovial cavity. The model represents an “acute” model of a chronic disease (e.g., rheumatoid arthritis). This model allows for the in vivo evaluation of agents to block cellular influx into the air pouch under the influence of an inflammatory stimulus.
(§2) The test was performed as follows: on day zero, groups of rats were shaved and 10 ml of air was injected subcutaneously on the back of each, forming a pouch. On day three, 10 ml of air was reinjected. […] Six hours following dosing, the air pouches of both groups received 2.5 ng of TNF. Twelve hours following dosing, the pouches were washed with saline, and the resulting lavage fluid was analyzed for leukocyte counts and neutrophil elastase activity. In addition, blood was drawn to determine the levels of D-030 in circulation. […] Reductions in specific leukocyte counts were as follows: neutrophils (90%), eosinophils (66%), and lymphocytes (70%).

mouse = assay: Mouse air pouch, TNF-α challenge, elastase exocytosis in lavage; type: in vivo; details: 32 mg/kg in LABRAFIL one hour before and two hours after TNF-α, FIG. 9
[11] = Levels of D-030 in circulation (air pouch test); type: in vivo; details: rat, blood, po; rats, 100 mg/kg in PEG 400 orally, twelve hours following dosing; read-out: Average compound in circulation
Method: as §2

PI3Kγ [12] = biological target: T2, PI3Kγ; assay: Biochemical assay of PI3K potency and selectivity using 20 μM ATP, Gamma
Excerpt: Recombinant baculoviruses containing the above clones were generated using manufacturer's recommended protocol (Life Technologies). Baculoviruses expressing His-tagged p110α, p110γ, or p110δ catalytic subunit and p85 subunit were coinfected into Sf21 insect cells. To enrich the heterodimeric enzyme complex, an excess amount of baculovirus expressing p85 subunit was infected, and the His-tagged p110 catalytic subunit complexed with p85 was purified on nickel affinity column. […] In an alternate approach, p101 can be cloned into baculovirus, to permit coexpression with its preferred binding partner p110γ. […]

[13] = stimulated T cell proliferation
[14] = 20 μM ATP, read-out: Delta IC50

| Compound | EC50 (human neutrophils [1]) | Alpha/Delta Ratio (PI3Kα [2]) | Alpha/Delta Ratio (PI3Kα [3]; 20 μM ATP) | EC50 (T cell proliferation; [13]) | EC50 (human neutrophils [4]) | Gamma/Delta Ratio (PI3Kγ [5]) | IC50 (PI3Kγ [5]) | Beta/Delta Ratio (PI3Kβ [6]) | EC50 [7] | IC50 (PI3Kδ [8]) | Beta/Delta Ratio (PI3Kβ [9]) | IC50 (PI3Kδ [10]; [14]) | further results |
| --- | --- | --- | --- | --- | --- | --- | --- | --- | --- | --- | --- | --- | --- |
| COc1ccccc1-n1c(CSc2ncnc3[nH]cnc23)nc2ccccc2c1=O [Compound D-036, 3-(2-methoxyphenyl)-2-(9H-purin-6-ylsulfanylmethyl)-3H-quinazolin-4-one] | 5500 ± 5000 nM | 48 | >226 | 4100 nM | 200 nM | 18 | 72000 nM | 69 | 900 ± 40 nM | 4100 nM | 36 | – | remaining activity at 100 µM (PI3Kα [3]): 63% |
| COC[C@H]1OC(=O)c2coc3c2[C@@]1(C)C1=C(C3=O)[C@@H]2CCC(=O)[C@@]2(C)C[C@H]1OC(C)=O [Wortmannin, wortmannin] | – | – | – | – | – | – | – | – | – | – | – | – | Pit depths (osteoclast activity), Table 1 (osteoclasts): 5.7 ± 0.6 and 5 ± 0.5 |
| O=c1cc(N2CCOCC2)oc2c(-c3ccccc3)cccc12 [LY294002, reference compound] | – | – | – | – | – | – | – | – | 900 ± 500 nM | 2100 ± 1500 nM | – | 230 nM | Pit depths (osteoclast activity), Table 1 (osteoclasts): 4.6 ± 0.22 and 5.8 ± 0.5; inhibition at 10 µM (basophils; Homo sapiens, at the highest concentration, 10,000 nM): ~100%; IC50 (PI3Kδ [10]; Example 2 assay conditions, read-out: IC50, δ isoform of PI3K (FIG. 1)): 300 to 1000 nM |
| Cc1ccccc1-n1c(Cn2cnc3c(N)ncnc32)nc2cccc(C)c2c1=O [Compound D-030, 2-(6-Aminopurin-9-ylmethyl)-5-methyl-3-o-tolyl-3H-quinazolin-4-one] | 400 ± 500 nM | – | – | 6000 nM | 200 nM | – | – | – | 100 ± 100 nM | – | – | – | Reduction in eosinophils count in lavage fluid (rats): 66%; Reduction in lymphocytes count in lavage fluid (rats): 70%; Reduction in neutrophils count in lavage fluid (rats): 90%; Reduction in total leukocytes in the lavage fluid compared to vehicle controls (rats): 82%; Reduction of neutrophil elastase levels versus vehicle controls (rats): 15%; Elastase activity in the air pouch lavages of TNF challenged animals (mouse): significant decrease; concentration at 12 h [11]: 8.7 µM |
| Cc1cccc2nc(CSc3ncnc4[nH]cnc34)n(-c3ccccc3Cl)c(=O)c12 [Compound D-026, 3-(2-Chlorophenyl)-5-methyl-2-(9H-purin-6-ylsulfanylmethyl)-3H-quinazolin-4-one] | 200 ± 200 nM | – | – | – | 300 ± 300 nM | – | 13000 ± 10000 nM | – | 300 ± 100 nM | 380 ± 200 nM | – | 80 nM | EC50 (basophils; Homo sapiens, read-out: EC50, suppression of histamine release): ~25 nM; Suppression of histamine release (basophils; anti-IgE, at 1,000 nM): ~100%; Effect on histamine release, basophils stimulated with fMLP (basophils; fMLP stimulus): Neither compound elicited any effect; EC50 (T cell proliferation; T-cell): 3500 nM; melting point: 227.8 to 230.1 °C (dec.); IC50 (PI3Kγ [12]): 1700 nM |
| Cc1cccc2nc(Cn3cnc4c(N)ncnc43)n(-c3ccccc3C(C)C)c(=O)c12 [Compound D-029, 2-(6-Aminopurin-9-ylmethyl)-3-(2-isopropylphenyl)-5-methyl-3H-quinazolin-4-one] | 500 ± 600 nM | 653 | 882 | 3400 ± 2000 nM | 300 nM | 37 | 13000 ± 700 nM | 54 | 100 ± 30 nM | 340 ± 80 nM | 101 | 60 nM | IC50 (PI3Kα [3]; 20 μM ATP, read-out: Alpha IC50): 49000 nM; melting point: 258 to 258.2 °C; IC50 (PI3Kβ [6]): 3000 nM; IC50 (PI3Kβ [9]): 34000 ± 4000 nM |
| O=c1c2ccccc2nc(CSc2ncnc3[nH]cnc23)n1Cc1ccccc1 [Compound D-037, 3-benzyl-2-(9H-purin-6-ylsulfanylmethyl)-3H-quinazolin-4-one] | 1300 ± 400 nM | 64 | >125 | – | 2000 nM | 13 | 45000 nM | 100 | 1200 ± 400 nM | 3500 nM | 33 | 800 nM | remaining activity at 100 µM (PI3Kα [3]): 64%; IC50 (PI3Kβ [6]): 80000 nM |

Source: patent US20200061062A1, “INHIBITORS OF HUMAN PHOSPHATIDYLINOSITOL 3-KINASE DELTA” (ICOS Corporation, priority 2000, published 2020)
